In ChEMBL document CHEMBL1201862, “PubChem BioAssay data set” (2004):
The source made the active and inactive calls.

Tests used:
Caspase-6 = target: T1, Caspase-6 (Homo sapiens, UniProt P55212); experiment: human caspase-6 inhibitors, dose response, biochemical, VEID-R110 fluorescence, cherry-pick (AID 720632)
T1 sequence (P55212 whole entry): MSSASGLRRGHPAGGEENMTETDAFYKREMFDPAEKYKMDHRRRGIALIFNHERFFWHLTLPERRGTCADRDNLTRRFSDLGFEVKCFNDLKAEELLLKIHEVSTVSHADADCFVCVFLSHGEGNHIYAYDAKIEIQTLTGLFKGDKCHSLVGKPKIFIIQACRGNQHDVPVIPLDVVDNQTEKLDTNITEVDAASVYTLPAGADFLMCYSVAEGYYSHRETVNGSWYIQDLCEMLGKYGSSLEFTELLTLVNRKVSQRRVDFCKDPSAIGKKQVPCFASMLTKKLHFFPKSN

[1] = target: T2, Zinc finger protein mex-5 (Caenorhabditis elegans, UniProt Q9XUB2); experiment: MEX-5/TCR-2 RNA interaction inhibitors, dose response, biochemical, C. elegans, fluorescence polarization (AID 1960)
T2 sequence (Q9XUB2 whole entry): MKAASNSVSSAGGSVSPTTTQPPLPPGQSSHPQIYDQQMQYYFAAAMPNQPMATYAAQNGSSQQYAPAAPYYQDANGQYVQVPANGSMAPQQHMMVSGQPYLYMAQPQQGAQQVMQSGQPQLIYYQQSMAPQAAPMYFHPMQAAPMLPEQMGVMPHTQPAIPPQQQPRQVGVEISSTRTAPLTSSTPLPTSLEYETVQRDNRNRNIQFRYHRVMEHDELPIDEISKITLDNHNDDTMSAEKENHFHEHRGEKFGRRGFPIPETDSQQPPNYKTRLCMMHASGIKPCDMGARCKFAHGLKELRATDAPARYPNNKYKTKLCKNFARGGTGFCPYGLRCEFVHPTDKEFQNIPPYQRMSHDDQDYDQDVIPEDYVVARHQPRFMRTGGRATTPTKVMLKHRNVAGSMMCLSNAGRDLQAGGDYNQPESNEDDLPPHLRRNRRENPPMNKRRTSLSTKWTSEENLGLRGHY

[2] = target: T3, Small ubiquitin-related modifier 1 (Homo sapiens, UniProt P63165); experiment: inhibitors of SUMO1 peptide binding, dose response, biochemical, fluorescence polarization, uHTS hits (AID 624382); assay type: functional; conditions: read-out: IC50_Mean
[3] = target: T4, RNA-binding protein pos-1 (Caenorhabditis elegans, UniProt G5EF15); experiment: inhibitors of POS-1/mex-3 RNA binding, dose response, biochemical, fluorescence polarization (AID 1964);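 note: purified POS-1 fused to maltose binding protein made in E. coli; potency of compounds blocking POS-1 binding to fluorescent RNA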
T4 sequence (G5EF15 whole entry): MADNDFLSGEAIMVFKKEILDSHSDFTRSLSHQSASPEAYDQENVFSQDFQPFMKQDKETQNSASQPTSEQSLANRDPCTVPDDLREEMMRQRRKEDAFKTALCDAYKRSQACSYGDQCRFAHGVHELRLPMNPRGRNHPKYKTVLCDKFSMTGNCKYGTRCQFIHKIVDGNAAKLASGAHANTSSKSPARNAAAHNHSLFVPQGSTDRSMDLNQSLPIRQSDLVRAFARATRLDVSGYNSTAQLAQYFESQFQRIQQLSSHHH

Large T antigen = Large T antigen (Simian virus 40, UniProt P03070); assay type: functional, Betapolyomavirus macacae;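 note: Confirmatory-stage PubChem screen for compounds that inhibit SV40 T antigen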
[4] = target: T3, Small ubiquitin-related modifier 1; experiment: inhibitors of SUMO1 partner interactions, dose response, biochemical, FRET (AID 624383); assay type: functional; conditions: read-out: IC50_Mean
Orexin receptor type 2 [5] = target: T5, Orexin receptor type 2 (Homo sapiens, UniProt O43614); experiment: Counterscreen assay for antagonists of the orexin 1 receptor (OX1R; HCRTR1): Homogeneous Time Resolved Fluorescence (HTRF)-based cell-based dose response assay for antagonists of the orexin 2 receptor (OX2R; HCRTR2), run by assay provider.; assay type: functional
T5 sequence (O43614 whole entry): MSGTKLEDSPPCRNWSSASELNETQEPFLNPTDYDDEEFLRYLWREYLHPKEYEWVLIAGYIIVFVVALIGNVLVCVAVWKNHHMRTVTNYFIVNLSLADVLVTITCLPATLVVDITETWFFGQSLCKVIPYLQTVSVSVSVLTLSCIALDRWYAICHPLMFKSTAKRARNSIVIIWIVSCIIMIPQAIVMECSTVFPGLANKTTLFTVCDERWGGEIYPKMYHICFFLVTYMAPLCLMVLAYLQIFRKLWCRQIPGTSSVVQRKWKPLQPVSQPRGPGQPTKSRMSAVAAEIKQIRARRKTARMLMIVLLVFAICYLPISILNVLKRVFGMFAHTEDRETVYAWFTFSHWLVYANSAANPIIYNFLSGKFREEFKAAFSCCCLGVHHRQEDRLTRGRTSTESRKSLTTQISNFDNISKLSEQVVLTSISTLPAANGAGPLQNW

[6] = target: Peroxisome proliferator-activated receptor gamma/Nuclear receptor coactivator 2 (Homo sapiens, UniProt P37231); experiment: TR-FRET dose response biochemical High Throughput Screening assay for agonists of the steroid receptor coactivator 2 (SRC-2) recruitment by the peroxisome proliferator-activated receptor gamma (PPAR gamma): non-selective agonists. [Related pubchem assays: 1297, 1032 ]; assay type: functional
[7] = Counterscreen for antagonists of the orexin 1 receptor (OX1R; HCRTR1): Fluorescence-based cell-based high throughput dose response assay to identify antagonists of the parental CHO cell line. [Related pubchem assays (depositor defined):AID434989, AID435008, AID463079, AID485270, AID492963, AID492964, AID492965, AID493232, AID504699, AID504701]; assay type: functional
CHO-K1 = experiment: Counterscreen for antagonists of the orexin 1 receptor (OX1R; HCRTR1): Homogeneous time resolved fluorescence (HTRF)-based cell-based dose response assay to identify antagonists of the parental CHO-K1 cell line. [Related pubchem assays (depositor defined):AID434989, AID435008, AID463079, AID485270, AID492963, AID492964, AID492965, AID493232, AID504699, AID504701]; assay type: functional; conditions: Cricetulus griseus;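 note: potency for inhibition of ATP-stimulated IP1 production as antagonists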
[8] = target: T6, Orexin/Hypocretin receptor type 1 (Homo sapiens, UniProt O43613); experiment: Fluorescence-based cell-based high throughput dose response assay for antagonists of the orexin 1 receptor (OX1R; HCRTR1). [Related pubchem assays (depositor defined):AID434989, AID435008, AID463079, AID485270, AID492963, AID492964, AID492965, AID493232, AID504717, AID504718]; assay type: functional
T6 sequence (O43613 whole entry): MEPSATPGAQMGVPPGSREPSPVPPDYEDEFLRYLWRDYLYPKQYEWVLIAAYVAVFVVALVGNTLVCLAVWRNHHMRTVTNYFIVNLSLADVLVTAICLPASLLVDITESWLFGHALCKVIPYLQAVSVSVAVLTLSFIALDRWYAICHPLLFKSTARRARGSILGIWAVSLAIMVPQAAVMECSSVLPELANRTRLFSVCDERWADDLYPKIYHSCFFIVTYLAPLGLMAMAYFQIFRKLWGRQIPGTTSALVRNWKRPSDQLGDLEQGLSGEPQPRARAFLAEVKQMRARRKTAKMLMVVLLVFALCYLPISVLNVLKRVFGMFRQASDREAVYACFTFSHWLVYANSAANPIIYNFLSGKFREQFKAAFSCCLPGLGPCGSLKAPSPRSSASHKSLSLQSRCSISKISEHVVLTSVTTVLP

[9] = target: Peroxisome proliferator-activated receptor gamma/Nuclear receptor coactivator 1 (Homo sapiens, UniProt P37231); experiment: TR-FRET dose response biochemical High Throughput Screening assay for agonists of the steroid receptor coactivator 1 (SRC-1) recruitment by the peroxisome proliferator-activated receptor gamma (PPAR gamma): non-selective agonists. [Related pubchem assays (depositor defined):AID1300, AID1808, AID504735, AID631]; assay type: protein assay
Orexin receptor type 2 [10] = target: T5, Orexin receptor type 2; experiment: Counterscreen assay for antagonists of the orexin 1 receptor (OX1R; HCRTR1): Fluorescence-based cell-based dose response assay for antagonists of the orexin 2 receptor (OX2R; HCRTR2), run by assay provider.; assay type: functional
[11] = target: Peroxisome proliferator-activated receptor gamma/Nuclear receptor coactivator 3 (Homo sapiens, UniProt P37231); experiment: TR-FRET dose response biochemical High Throughput Screening assay for agonists of the steroid receptor coactivator 3 (SRC-3) recruitment by the peroxisome proliferator-activated receptor gamma (PPAR gamma): non-selective agonists. [Related pubchem assays: 1301 (Confirmation screen.), 1048 (Primary screen.)]; assay type: functional
[12] = target: T6, Orexin/Hypocretin receptor type 1; experiment: Homogeneous Time Resolved Fluorescence (HTRF)-based cell-based high throughput dose response assay for antagonists of the orexin 1 receptor (OX1R; HCRTR1). [Related pubchem assays (depositor defined):AID434989, AID435008, AID463079, AID485270, AID492963, AID492964, AID492965, AID493232, AID504717, AID504718]; assay type: functional
[13] = target: T7, Long-chain-fatty-acid--AMP ligase FadD28 (Mycobacterium tuberculosis, UniProt P9WQ59); experiment: Fluorescence polarization aasay to screen for inhibitors that compete for the binding of FadD28 to a bisubstrate Measured in Biochemical System Using Plate Reader - 2147-01_Inhibitor_Dose_CherryPick_Activity.; assay type: functional, Mycobacterium tuberculosis H37Rv
T7 sequence (P9WQ59 whole entry): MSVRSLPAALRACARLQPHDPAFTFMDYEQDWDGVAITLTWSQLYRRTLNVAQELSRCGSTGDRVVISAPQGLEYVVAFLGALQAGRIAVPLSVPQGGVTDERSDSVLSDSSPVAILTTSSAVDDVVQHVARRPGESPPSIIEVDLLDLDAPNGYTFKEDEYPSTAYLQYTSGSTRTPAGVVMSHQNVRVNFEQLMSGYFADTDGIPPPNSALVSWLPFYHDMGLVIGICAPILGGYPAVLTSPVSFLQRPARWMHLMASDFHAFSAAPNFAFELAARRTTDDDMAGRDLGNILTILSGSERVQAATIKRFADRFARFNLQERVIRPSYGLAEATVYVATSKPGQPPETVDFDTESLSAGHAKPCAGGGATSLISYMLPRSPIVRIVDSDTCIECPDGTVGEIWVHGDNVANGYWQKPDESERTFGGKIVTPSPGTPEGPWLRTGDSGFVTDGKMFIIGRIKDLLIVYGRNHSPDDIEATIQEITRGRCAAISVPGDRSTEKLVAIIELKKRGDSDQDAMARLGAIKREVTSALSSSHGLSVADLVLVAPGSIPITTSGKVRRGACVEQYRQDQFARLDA

[14] = target: Arf-GAP with SH3 domain, ANK repeat and PH domain-containing protein 1 (Homo sapiens, UniProt Q9ULH1); assay type: functional;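 note: biochemical fluorescence polarization dose–response screen measuring inhibition of ASAP1; ASAP1 GAP domain stimulating GTP hydrolysis by truncated human ARF1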
[15] = miR-122 activators in hepatoma reporter cells, dose response, cell-based, Huh7 psiCHECK-miR122, Renilla luciferase, cherry-picked (AID 651956); assay type: functional;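 note: huh7 hepatoma cells stably carrying a psiCHECK-2 miR-122 sensor plasmid; renilla luciferase signal reporting endogenous miR-122 activity after 48 h compound exposure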
[16] = target: FAD-linked sulfhydryl oxidase ALR (Homo sapiens, UniProt P55789); experiment: inhibitors of human ALR sulfhydryl oxidase, dose response, biochemical, H2O2 detection, luminescence, cherry-pick (AID 493248)
Cytochrome P450 2C19 = Cytochrome P450 2C19 (Homo sapiens, UniProt P33261); experiment: Cytochrome panel assay with activity outcomes. Panel member name: p450-cyp2c19 Compounds with AC50 equal or less than 10 uM are considered active; assay type: functional; conditions: read-out: AC50
Cytochrome P450 2D6 = Cytochrome P450 2D6 (Homo sapiens, UniProt P10635);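 note: CYP2D6 member of a cytochrome P450 panel assay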

T3 sequence (P63165 whole entry, the tested form may be a part): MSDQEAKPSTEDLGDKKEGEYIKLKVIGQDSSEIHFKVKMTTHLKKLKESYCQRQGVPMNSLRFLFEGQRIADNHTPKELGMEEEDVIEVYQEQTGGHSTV
Sequence of Peroxisome proliferator-activated receptor gamma/Nuclear receptor coactivator 3 (P37231 whole entry): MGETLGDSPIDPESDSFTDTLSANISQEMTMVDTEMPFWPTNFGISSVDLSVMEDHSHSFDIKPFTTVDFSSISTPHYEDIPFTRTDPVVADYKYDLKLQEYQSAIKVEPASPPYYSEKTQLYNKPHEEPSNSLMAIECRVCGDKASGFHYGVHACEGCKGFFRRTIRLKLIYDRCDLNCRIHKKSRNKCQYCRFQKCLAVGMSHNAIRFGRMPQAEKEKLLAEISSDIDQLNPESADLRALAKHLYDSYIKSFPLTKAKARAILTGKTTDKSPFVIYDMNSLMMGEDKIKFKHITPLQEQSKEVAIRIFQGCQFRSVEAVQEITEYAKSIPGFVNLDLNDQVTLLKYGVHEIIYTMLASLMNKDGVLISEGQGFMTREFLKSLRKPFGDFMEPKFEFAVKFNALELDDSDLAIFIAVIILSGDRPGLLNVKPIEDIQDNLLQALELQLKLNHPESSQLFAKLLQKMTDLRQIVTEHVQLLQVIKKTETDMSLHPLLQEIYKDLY
Sequence of Peroxisome proliferator-activated receptor gamma/Nuclear receptor coactivator 3 (Q9Y6Q9 whole entry, further chain): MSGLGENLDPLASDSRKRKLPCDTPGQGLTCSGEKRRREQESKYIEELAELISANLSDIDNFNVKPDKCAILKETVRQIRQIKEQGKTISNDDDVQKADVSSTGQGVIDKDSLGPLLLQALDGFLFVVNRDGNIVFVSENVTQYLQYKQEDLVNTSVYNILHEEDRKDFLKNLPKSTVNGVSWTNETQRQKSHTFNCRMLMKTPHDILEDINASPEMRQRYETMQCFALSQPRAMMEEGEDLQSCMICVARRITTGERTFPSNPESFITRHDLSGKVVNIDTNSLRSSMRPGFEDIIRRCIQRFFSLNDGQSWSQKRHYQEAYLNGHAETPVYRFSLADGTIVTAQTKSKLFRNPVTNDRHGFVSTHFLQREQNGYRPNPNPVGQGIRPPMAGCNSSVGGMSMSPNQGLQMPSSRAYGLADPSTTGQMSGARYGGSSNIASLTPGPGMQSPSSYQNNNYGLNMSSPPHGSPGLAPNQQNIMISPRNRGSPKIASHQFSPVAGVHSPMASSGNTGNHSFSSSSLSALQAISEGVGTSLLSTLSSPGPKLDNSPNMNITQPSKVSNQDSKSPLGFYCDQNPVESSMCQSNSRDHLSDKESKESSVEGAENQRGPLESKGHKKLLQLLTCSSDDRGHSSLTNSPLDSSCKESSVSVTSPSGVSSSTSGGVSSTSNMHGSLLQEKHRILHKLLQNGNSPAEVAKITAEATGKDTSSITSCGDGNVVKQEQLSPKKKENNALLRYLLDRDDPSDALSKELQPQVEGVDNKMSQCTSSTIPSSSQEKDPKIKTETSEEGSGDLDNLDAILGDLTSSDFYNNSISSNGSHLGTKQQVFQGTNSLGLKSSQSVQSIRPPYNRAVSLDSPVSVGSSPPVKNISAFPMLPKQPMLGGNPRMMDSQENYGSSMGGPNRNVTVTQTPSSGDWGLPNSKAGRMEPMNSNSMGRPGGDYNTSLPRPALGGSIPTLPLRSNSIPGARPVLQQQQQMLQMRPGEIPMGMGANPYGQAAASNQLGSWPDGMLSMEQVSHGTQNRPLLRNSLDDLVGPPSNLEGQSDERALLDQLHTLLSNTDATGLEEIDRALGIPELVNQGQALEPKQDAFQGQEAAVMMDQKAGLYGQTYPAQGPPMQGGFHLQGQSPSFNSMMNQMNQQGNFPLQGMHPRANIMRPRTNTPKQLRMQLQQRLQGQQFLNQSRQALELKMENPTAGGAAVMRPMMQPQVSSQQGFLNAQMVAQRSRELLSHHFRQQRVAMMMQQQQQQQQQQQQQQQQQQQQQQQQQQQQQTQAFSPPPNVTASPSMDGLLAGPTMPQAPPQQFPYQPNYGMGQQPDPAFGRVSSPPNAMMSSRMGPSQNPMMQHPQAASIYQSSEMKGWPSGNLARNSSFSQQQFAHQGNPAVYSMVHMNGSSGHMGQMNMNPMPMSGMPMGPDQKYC
Sequence of Peroxisome proliferator-activated receptor gamma/Nuclear receptor coactivator 2 (P37231 whole entry): as the sequence (P37231 whole entry) above
Sequence of Peroxisome proliferator-activated receptor gamma/Nuclear receptor coactivator 2 (Q15596 whole entry, further chain): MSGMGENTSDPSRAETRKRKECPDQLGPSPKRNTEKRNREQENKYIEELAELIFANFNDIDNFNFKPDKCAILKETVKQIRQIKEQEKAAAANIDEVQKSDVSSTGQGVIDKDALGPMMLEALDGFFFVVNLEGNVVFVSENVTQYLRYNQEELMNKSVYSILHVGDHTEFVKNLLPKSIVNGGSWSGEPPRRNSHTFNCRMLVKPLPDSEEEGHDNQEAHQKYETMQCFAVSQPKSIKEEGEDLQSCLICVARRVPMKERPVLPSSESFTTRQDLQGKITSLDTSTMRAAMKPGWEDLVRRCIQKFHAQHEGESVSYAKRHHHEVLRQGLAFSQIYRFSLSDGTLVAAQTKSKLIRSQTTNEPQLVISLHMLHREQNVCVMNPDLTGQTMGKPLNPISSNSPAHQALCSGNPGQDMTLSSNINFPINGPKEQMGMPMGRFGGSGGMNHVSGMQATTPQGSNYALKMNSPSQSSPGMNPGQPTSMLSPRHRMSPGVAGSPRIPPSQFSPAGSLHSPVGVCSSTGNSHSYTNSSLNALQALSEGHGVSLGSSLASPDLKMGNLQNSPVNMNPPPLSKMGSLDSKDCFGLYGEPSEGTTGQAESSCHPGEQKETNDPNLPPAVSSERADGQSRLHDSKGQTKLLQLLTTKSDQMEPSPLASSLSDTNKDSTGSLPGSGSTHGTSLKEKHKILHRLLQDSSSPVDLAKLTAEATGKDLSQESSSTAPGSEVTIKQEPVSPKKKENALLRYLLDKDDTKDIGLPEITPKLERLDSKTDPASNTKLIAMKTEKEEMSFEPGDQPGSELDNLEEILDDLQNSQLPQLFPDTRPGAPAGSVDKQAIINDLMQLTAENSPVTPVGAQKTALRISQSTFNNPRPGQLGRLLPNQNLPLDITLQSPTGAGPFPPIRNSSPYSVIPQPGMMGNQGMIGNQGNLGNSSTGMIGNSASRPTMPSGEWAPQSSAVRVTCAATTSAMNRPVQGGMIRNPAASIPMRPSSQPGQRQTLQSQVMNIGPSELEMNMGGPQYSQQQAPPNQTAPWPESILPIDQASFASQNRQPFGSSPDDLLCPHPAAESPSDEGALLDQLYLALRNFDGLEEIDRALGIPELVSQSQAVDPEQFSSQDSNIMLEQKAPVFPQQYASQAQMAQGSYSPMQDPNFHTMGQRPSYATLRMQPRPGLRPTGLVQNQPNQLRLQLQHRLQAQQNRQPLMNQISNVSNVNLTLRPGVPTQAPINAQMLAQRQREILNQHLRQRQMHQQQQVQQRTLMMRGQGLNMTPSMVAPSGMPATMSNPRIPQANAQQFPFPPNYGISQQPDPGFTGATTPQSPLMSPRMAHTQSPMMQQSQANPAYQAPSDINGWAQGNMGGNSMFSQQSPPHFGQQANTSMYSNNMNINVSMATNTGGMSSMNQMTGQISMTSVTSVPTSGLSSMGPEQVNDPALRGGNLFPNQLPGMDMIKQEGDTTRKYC
Sequence of Large T antigen (P03070 whole entry): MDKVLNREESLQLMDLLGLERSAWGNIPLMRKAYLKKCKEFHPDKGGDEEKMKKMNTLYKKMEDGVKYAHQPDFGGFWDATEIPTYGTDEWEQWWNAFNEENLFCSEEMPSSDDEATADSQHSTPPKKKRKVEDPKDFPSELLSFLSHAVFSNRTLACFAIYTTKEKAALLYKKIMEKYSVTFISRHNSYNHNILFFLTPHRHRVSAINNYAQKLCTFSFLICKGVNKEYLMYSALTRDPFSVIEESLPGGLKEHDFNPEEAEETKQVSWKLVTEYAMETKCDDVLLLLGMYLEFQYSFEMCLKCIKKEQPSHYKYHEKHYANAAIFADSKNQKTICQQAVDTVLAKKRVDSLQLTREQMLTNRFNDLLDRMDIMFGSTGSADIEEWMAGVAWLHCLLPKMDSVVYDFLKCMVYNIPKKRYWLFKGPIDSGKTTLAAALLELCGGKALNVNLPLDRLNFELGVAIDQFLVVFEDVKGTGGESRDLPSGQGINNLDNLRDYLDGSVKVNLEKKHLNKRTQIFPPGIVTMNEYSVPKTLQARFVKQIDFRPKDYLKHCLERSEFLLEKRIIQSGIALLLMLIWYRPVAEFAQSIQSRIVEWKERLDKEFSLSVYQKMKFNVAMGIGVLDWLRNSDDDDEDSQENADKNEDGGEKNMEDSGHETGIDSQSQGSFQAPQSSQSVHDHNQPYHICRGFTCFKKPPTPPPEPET
Sequence of FAD-linked sulfhydryl oxidase ALR (P55789 whole entry): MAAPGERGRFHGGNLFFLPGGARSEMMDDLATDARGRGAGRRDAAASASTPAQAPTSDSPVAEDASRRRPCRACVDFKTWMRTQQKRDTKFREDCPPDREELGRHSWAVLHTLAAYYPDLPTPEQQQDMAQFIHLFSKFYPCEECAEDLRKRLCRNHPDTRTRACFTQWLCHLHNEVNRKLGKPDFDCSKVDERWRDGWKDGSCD

SMILES | IC50 (Orexin receptor type 2 [5]) | IC50 [7] | IC50 (CHO-K1) | IC50 [8] | IC50 (Orexin receptor type 2 [10]) | IC50 [12] | AC50 [13] | other results
COc1cc(/C=C2\CCc3c2nc2ccccc2c3C(=O)O)cc(OC)c1OC | – | – | – | – | – | – | – | AC50 (Caspase-6): 6.8 µM (active); EC50 [1]: 34.8 µM (active); IC50 [2]: > 66.6 µM (inactive); EC50 [3]: 94 µM (active); IC50 (Large T antigen): 35 µM (active); IC50 [4]: 12.5 µM (active)
Cc1cc(SCC(=O)c2ccc3c(c2)OCO3)nc2ccccc12 | 11.2 µM (inactive) | > 49.7 µM (inactive) | > 66.2 µM (inactive) | 18.8 µM (inactive) | 14.1 µM (inactive) | 3.34 µM (active) | – | EC50 [6]: 10.4 µM (not active); EC50 [9]: 10.2 µM (inactive); EC50 [11]: > 79.4 µM (not active)
CC[C@]12c3[nH]c4cc(-c5ccco5)ccc4c3CCN1C(=O)[C@@H](CC(=O)NC/C=C(\C)CCC=C(C)C)C[C@@H]2C(=O)N1CCN(C(=O)c2ccco2)CC1 | 2.05 µM (active) | > 49.8 µM (inactive) | > 66.2 µM (inactive) | 3.23 µM (active) | 39.5 µM (inactive) | 1.07 µM (active) | – | –
Cc1ccc(NC(=O)CN2C(=O)S/C(=C\c3cc(C)n(-c4cccc(C(=O)O)c4)c3C)C2=O)cc1 | – | – | – | – | – | – | 2.03 µM (active) | EC50 [1]: > 300 µM (not active); EC50 [3]: > 300 µM (not active)
COc1ccc([N+](=O)[O-])cc1NC(=O)c1ccc(-n2nc(C)cc2C)cc1 | – | – | – | – | – | – | – | IC50 [14]: 28 µM (inactive)
Cc1ccccc1N(CC(=O)NC1CCCC1)C(=O)c1oc(C(C)(C)C)cc1C | > 50 µM (inactive) | > 49.8 µM (inactive) | > 66.2 µM (inactive) | 3.52 µM (active) | > 88.8 µM (inactive) | 0.264 µM (active) | – | –
COc1cccc(CNC(=O)COc2cc(O)c3c(c2)OC(C)(C)CC3=O)c1 | – | – | – | – | – | – | 79.7 µM (active) | –
CN1C(=O)c2cc(NC(=O)c3cccc(F)c3)ccc2OC[C@H]2O[C@H](CC(=O)O)CC[C@H]21 | – | – | – | – | – | – | – | AC50 [15]: 0.366 µM (active)
COc1ccc(C(=O)NCc2ccc(C)cc2)cc1S(=O)(=O)N1CCOCC1 | – | – | – | – | – | – | 64.8 µM (active) | –
OCc1ccc(-c2nn(Cc3ccccc3)c3ccccc23)o1 | – | – | – | – | – | – | – | AC50 [16]: 10 µM (active); AC50 (Cytochrome P450 2C19): 10 µM (inconclusive); AC50 [15]: 0.547 µM (active); AC50 (Cytochrome P450 2D6): 39.8 µM (inconclusive)
